Data taken from article PMC9026428, “New Peptide Based Fluconazole Conjugates with Expanded Molecular Targets” (Pharmaceutics, 2022).
Where two headings read alike, the source gives them in different places. No end group written: not given here.

Legend:
[1] = cited from earlier work
Procedure: Fluconazole is water-soluble, safe for patients even at a high daily dose ([…]), can be applied either intravenously or orally, and has a beneficial pharmacokinetic profile and broad spectrum of activity.

Candida albicans 138 = experiment: microbe, parasite or virus in culture; conditions: Candida albicans, 138, 24 h
Procedure: (§1) The assessment of antifungal potential of synthesized agents was carried out using four reference strains (C. albicans ATCC 10231, C. albicans SC5314, C. glabrata DSM […] and C. krusei DSM […]) and six clinical isolates of fluconazole-resistant C. albicans that were provided by the Hospital of Medical University of Gdansk, Poland. Moreover, four C. albicans isolates, assigned as B3, B4, Gu4 and Gu5, were used for investigation whether the synthesized fluconazole derivatives were effectively removed from the yeast cells by the drug efflux transporters, as in the case of fluconazole. These strains were kindly provided by Prof. Joachim Morschhäuser from University of Würzburg (Würzburg, Germany). Strains Gu4 and B3 were fluconazole-sensitive isolates obtained from early infection episodes, while Gu5 and B4 were the corresponding fluconazole-resistant isolates obtained from later episodes in the same patients treated with fluconazole. The lack of susceptibility of the Gu5 strain to fluconazole was a consequence of overexpression of CDR1/2 genes encoding ABC transporters, whereas the resistance of B4 strain was caused by overexpression of the MDR1 gene encoding a membrane transport protein of the major facilitator superfamily (MFS). All of these Candida spp. strains were maintained on YPD agar plates (1% (w/v) yeast extract, 2% (w/v) peptone, 2% (w/v) glucose, 2% (w/v) agar) at 30 °C for 16–24 h. For all of the assays aimed at assessing the antifungal potential of the synthesized agents, the yeasts were cultivated at 37 °C in RPMI 1640 medium (with L-glutamine, without sodium bicarbonate, Sigma-Aldrich, Darmstadt, Germany)) buffered to a pH of 7.0 with 0.165 M morpholinepropanesulfonic acid (MOPS) buffer (Sigma-Aldrich). In this study, we used the human foreskin fibroblast cell line Hs27 (ATCC CRL 1634TM) and the human endothelial cell line HUVEC (C2519A), purchased from Lonza Group AG, (Basel, Switzerland). The Hs27 cells were maintained in cell media consisting of Dulbecco’s modified Eagles medium (DMEM), (Corning, Arizona, USA) with 10% fetal bovine serum (FBS), (Corning, Port Elizabeth, South Africa), 1% penicillin/streptomycin (Sigma-Aldrich Inc., Darmstadt, Germany), and 1% L-glutamine (Corning, Arizona, USA). The human endothelial cell line was maintained in cell media consisting of Endothelial Cell Growth Medium-2 Single Quots Kit (Lonza, USA). Both cell lines were cultured in an incubator at 37 °C and 5% CO2.
(§2) Antifungal activity of the tested compounds against yeast cells was determined in 96-well plates as described in the CLSI document M27-A3 [39], with minor modifications (CLSI, 2008). […] The plates were incubated for 24 h at 37 °C. Each test was performed in triplicate. The final concentration of DMSO was ensured to be around 1% in all experiments.
(§3) For determination of minimum fungicidal concentrations (MFC), small aliquots of suspensions (around 10 μL) from each well were transferred using the pipette to YPD agar plates without inhibitors and incubated for 24 h at 37 °C.

Candida albicans 190 = experiment: microbe, parasite or virus in culture; conditions: Candida albicans, 190, 24 h
Procedure: as §1, §2, §3

Candida albicans 247 = experiment: microbe, parasite or virus in culture; conditions: Candida albicans, 247, 24 h
Procedure: as §1, §2, §3

Candida albicans 48 = experiment: microbe, parasite or virus in culture; conditions: Candida albicans, 48, 24 h
Procedure: as §1, §2, §3

Candida albicans 574 = experiment: microbe, parasite or virus in culture; conditions: Candida albicans, 574, 24 h
Procedure: as §1, §2, §3

Candida albicans 604 = experiment: microbe, parasite or virus in culture; conditions: Candida albicans, 604, 24 h
Procedure: as §1, §2, §3

[2] = tested on: Candida albicans ATCC 10231; experiment: microbe, parasite or virus in culture; conditions: Candida albicans, ATCC10231, 24 h
Procedure: as §1, §2, §3

Candida albicans B3 = experiment: microbe, parasite or virus in culture; conditions: Candida albicans, B3, 24 h
Procedure: as §1, §2, §3

Candida albicans B4 = experiment: microbe, parasite or virus in culture; conditions: Candida albicans, B4, 24 h
Procedure: as §1, §2, §3

Candida albicans Gu4 = experiment: microbe, parasite or virus in culture; conditions: Candida albicans, GU4, 24 h
Procedure: as §1, §2, §3

Candida albicans Gu5 = experiment: microbe, parasite or virus in culture; conditions: Candida albicans, GU5, 24 h
Procedure: as §1, §2, §3

Candida albicans SC 5314 = experiment: microbe, parasite or virus in culture; conditions: Candida albicans, SC5314, 24 h
Procedure: as §1, §2, §3

[3] = tested on: Candida glabrata DSM 6128; experiment: microbe, parasite or virus in culture; conditions: Nakaseomyces glabratus, DSM6128, 24 h
Procedure: as §1, §2, §3

Candida krusei DSM 11226 = experiment: microbe, parasite or virus in culture; conditions: Pichia kudriavzevii, DSM11226, 24 h
Procedure: as §1, §2, §3

[4] = tested on: Candida spp. strains tested; experiment: Antifungal activity against the whole panel of strains tested; assay type: cell-based; conditions: Candida; all strains of Table 2
Procedure: Antifungal activity of the tested compounds against yeast cells was determined in 96-well plates as described in the CLSI document M27-A3 [39], with minor modifications (CLSI, 2008). Suspensions of the microorganisms were prepared by taking one loop of pure culture into sterile water and adjusting optical density to 0.1 at 660 nm wavelength and further 50-fold dilution in RPMI 1640 medium, resulting in cell concentration of approximately 2 × 10^4 CFU/mL [21]. Then, 100 μL of cells were added to the wells of a 96-well microtiter plate that contained 16–500 μM tested compounds and 16–500 μM of FLC or 0.2–62 μM AmB. The plates were incubated for 24 h at 37 °C. Each test was performed in triplicate. […] The MIC90 was defined as the lowest concentration of drug showing no visible growth; MIC50 was defined as the concentration that yielded at least 50% growth inhibition when compared with the growth control well.

C. albicans ATCC 10231 = conditions: C. albicans ATCC 10231, RPMI-1640, 200 – 0.4 μg/mL range
Procedure: (§4) The selective activities of the FLC-conjugates were calculated according to the following formula
(§5) (1 picture or pasted object on this page, not shown here)

C. glabrata DSM 11226 = conditions: C. glabrata DSM 11226, RPMI-1640, 200 – 0.4 μg/mL range
Procedure: as §4, §5

C. krusei DSM 6128 = conditions: C. krusei DSM 6128, RPMI-1640, 200 – 0.4 μg/mL range
Procedure: as §4, §5

C. tropicalis (clinical) = conditions: RPMI-1640, 200 – 0.4 μg/mL range
Procedure: as §4, §5

For `CC(=O)N1CCN(c2ccc(OCC3COC(Cn4ccnc4)(c4ccc(Cl)cc4Cl)O3)cc2)CC1` (stereo not shown) [ketoconazole], the “incidence rate of azole-induced liver injury” value [1] is given as 2–10%.

With `C[C@@H]1[C@H](O)[C@@H](C)/C=C/C=C/C=C/C=C/C=C/C=C/C=C/[C@H](O[C@@H]2O[C@H](C)[C@@H](O)[C@H](N)[C@@H]2O)C[C@@H]2O[C@](O)(C[C@@H](O)C[C@@H](O)[C@H](O)CC[C@@H](O)C[C@@H](O)CC(=O)O[C@H]1C)C[C@H](O)[C@H]2C(=O)O` [Amphotericin B (AmpB), Amphotericin B, reference compound] the MFC (Candida albicans 138) was < 0.1 µM, the MIC50 (Candida albicans 138; pH 7) was < 0.1 µM and the MIC90 (Candida albicans 138; pH 7) was < 0.1 µM. For the same compound, the MFC (Candida albicans 190) was < 0.1 µM, the MIC50 (Candida albicans 190; pH 7) was < 0.1 µM and the MIC90 (Candida albicans 190; pH 7) was < 0.1 µM. For the same compound, the MFC (Candida albicans 247) was < 0.1 µM, the MIC50 (Candida albicans 247; pH 7) was < 0.1 µM and the MIC90 (Candida albicans 247; pH 7) was < 0.1 µM. For the same compound, the MFC (Candida albicans 48) was < 0.1 µM, the MIC50 (Candida albicans 48; pH 7) was < 0.1 µM and the MIC90 (Candida albicans 48; pH 7) was < 0.1 µM. The MFC (Candida albicans 574) was < 0.1 µM, the MIC50 (Candida albicans 574; pH 7) was < 0.1 µM and the MIC90 (Candida albicans 574; pH 7) was < 0.1 µM. For the same compound, the MFC (Candida albicans 604) was < 0.1 µM, the MIC50 (Candida albicans 604; pH 7) was < 0.1 µM and the MIC90 (Candida albicans 604; pH 7) was < 0.1 µM. The MFC [2] was < 0.1 µM, the MIC50 ([2]; pH 7) was < 0.1 µM and the MIC90 ([2]; pH 7) was < 0.1 µM. For the same compound, the MFC (Candida albicans B3) was < 0.1 µM, the MIC50 (Candida albicans B3; pH 7) was < 0.1 µM and the MIC90 (Candida albicans B3; pH 7) was < 0.1 µM. The MFC (Candida albicans B4) was < 0.1 µM, the MIC50 (Candida albicans B4; pH 7) was < 0.1 µM and the MIC90 (Candida albicans B4; pH 7) was < 0.1 µM. The MFC (Candida albicans Gu4) was < 0.1 µM, the MIC50 (Candida albicans Gu4; pH 7) was < 0.1 µM and the MIC90 (Candida albicans Gu4; pH 7) was < 0.1 µM. The MFC (Candida albicans Gu5) was < 0.1 µM, the MIC50 (Candida albicans Gu5; pH 7) was < 0.1 µM and the MIC90 (Candida albicans Gu5; pH 7) was < 0.1 µM. For the same compound, the MFC (Candida albicans SC 5314) was < 0.1 µM, the MIC50 (Candida albicans SC 5314; pH 7) was < 0.1 µM and the MIC90 (Candida albicans SC 5314; pH 7) was < 0.1 µM. For the same compound, the MFC [3] was < 0.1 µM, the MIC50 ([3]; pH 7) was < 0.1 µM and the MIC90 ([3]; pH 7) was < 0.1 µM. For the same compound, the MFC (Candida krusei DSM 11226) was < 0.1 µM, the MIC50 (Candida krusei DSM 11226; pH 7) was < 0.1 µM and the MIC90 (Candida krusei DSM 11226; pH 7) was < 0.1 µM. For the same compound, the MIC [4] was < 0.1 µM.

In the case of CFQWKRAMRKVR-NH2 [HLopt2-NH2], the “MIC50” value (C. albicans ATCC 10231) is reported as > 250 µg/mL, the “MIC50” value (C. glabrata DSM 11226) is reported as > 250 µg/mL and the “MIC90” value (C. glabrata DSM 11226) is reported as > 250 µg/mL. The “MIC50” value (C. krusei DSM 6128) was 250 µg/mL, the “MIC90” value (C. krusei DSM 6128) was 250 µg/mL and the “MIC50” value (C. tropicalis (clinical)) was > 250 µg/mL. The “MIC90” value (C. tropicalis (clinical)) was > 250 µg/mL.

In the case of `CCC(C)n1ncn(-c2ccc(N3CCN(c4ccc(OCC5COC(Cn6cncn6)(c6ccc(Cl)cc6Cl)O5)cc4)CC3)cc2)c1=O` (stereo not shown) [itraconazole], the “incidence rate of azole-induced liver injury” value ([1]; in vivo) is listed as 2–4%.
